The values below come from patent US11840528B2 (Hoffmann-La Roche Inc., priority 2018, dated 2023).

The term Ki denotes a dissociation constant, usually derived from enzyme kinetics or from competition with a known ligand. Read a low Ki as a stronger hold on the target.

The target of assay [1] is T1, h-GABA-A α5β3γ2 (Homo sapiens, UniProt P18507+P31644). In words: [3H]flumazenil competition binding assay, membranes of HEK293 cells expressing GABAA receptors. The conditions noted are these: displacement of [3H]-Flumazenil 0.5 nM, HEK293 cells expressing human receptors, mean of two determinations; Table 1. The method in brief:
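Receptor source: human α5β3γ2 transiently transfected into HEK293 cells, membranes in pH 7.5 Krebs-tris. Filtration through GF/C, then scintillation counting.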
Background: Displacement assays read how much labelled ligand stays bound in the presence of the test substance.

Assay [2] deals with T1, h-GABA-A α5β3γ2. Put plainly: Two-electrode voltage clamp electrophysiology in Xenopus laevis oocytes expressing GABAA receptors, modulation of GABA EC20 current. Format: cell-based. On the set-up: host or cells: Xenopus laevis oocytes micro-injected with RNA transcripts of the subunits. The conditions noted are these: Table 1; for Efficacy (GABA) %: % modulation of GABA EC20 = 100*(Fold increase-1); for Fold increase h-GABA-A α5β3γ2 oocyte: test compound at approx. 30 fold its Ki, GABA at EC20. The method in brief: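 Modulation is reported as % of the GABA EC20 current, calculated as 100*(Fold increase−1) from the peak ratio between a second GABA response carrying compound (applied at roughly 30-fold Ki) and a preceding control response. Oocytes expressing human α5β3γ2 were clamped at −80 mV at room temperature, 3–5 days after injection.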
In general terms: Two-electrode voltage clamp holds a large cell at a set potential and records current.

For `Cc1ccc(-c2noc(C)c2Cn2ncc(N3CC4(C[C@@H](F)CO4)C3)cc2=O)cn1` [Example 200, 5-[(7R)-7-fluoro-5-oxa-2-azaspiro[3.4]octan-2-yl]-2-[[5-methyl-3-(6-methyl-3-pyridyl)isoxazol-4-yl]methyl]pyridazin-3-one], the inhibition constant (Ki) in assay [1] stood at 18.6 nM. In assay [2], the “Efficacy (GABA) %” value worked out at 86% and the “Fold increase h-GABA-A α5β3γ2 oocyte” value was 1.86.

In assay [1], `Cc1ccc(-c2noc(C)c2Cn2ncc(N(C)C)cc2=O)cn1` [Example 45, 5-(dimethylamino)-2-((5-methyl-3-(6-methylpyridin-3-yl)isoxazol-4-yl)methyl)pyridazin-3(2H)-one] returned a Ki of 6.6 nM. In assay [2], the “Efficacy (GABA) %” value is listed as 103% and the “Fold increase h-GABA-A α5β3γ2 oocyte” value was 2.03.

Compound `Cc1ccc(-c2noc(C)c2Cn2ncc(-c3ccc(F)cc3)cc2=O)cn1` [Example 68, 5-(4-fluorophenyl)-2-[[5-methyl-3-(6-methylpyridin-3-yl)-1,2-oxazol-4-yl]methyl]pyridazin-3-one] registered an inhibition constant (Ki) in assay [1] of 11.9 nM. Moreover, in assay [2], the “Efficacy (GABA) %” value is 71% and the “Fold increase h-GABA-A α5β3γ2 oocyte” value worked out at 1.71.

The compound `O=C(C1CC1)N1CCN(c2cnn(Cc3c(-c4ccc(Cl)cn4)noc3C3CC3)c(=O)c2)CC1` [Example 25, 2-((3-(5-Chloropyridin-2-yl)-5-cyclopropylisoxazol-4-yl)methyl)-5-(4-(cyclopropanecarbonyl)piperazin-1-yl)pyridazin-3(2H)-one] gave a Ki in assay [1] of 12.5 nM. Also, in assay [2], the “Efficacy (GABA) %” value was determined as 266% and the “Fold increase h-GABA-A α5β3γ2 oocyte” value is listed as 3.66.

Compound `Cc1onc(-c2ccc(Cl)nc2)c1Cn1ncc(N2CC3(C2)CC(F)(F)CO3)cc1=O` [Example 217, 2-((3-(6-chloropyridin-3-yl)-5-methylisoxazol-4-yl)methyl)-5-(7,7-difluoro-5-oxa-2-azaspiro[3.4]octan-2-yl)pyridazin-3(2H)-one] yielded an inhibitory constant (Ki) in assay [1] of 12.3 nM. In assay [2], the “Efficacy (GABA) %” value was 85% and the “Fold increase h-GABA-A α5β3γ2 oocyte” value is 1.85.

In assay [1], `Cc1ccc(-c2noc(C)c2Cn2ncc(N3C[C@H](C)O[C@@H](C)C3)cc2=O)cn1` (single isomer, unassigned) [Example 29, 5-[(2S,6S)-2,6-dimethylmorpholin-4-yl]-2-[[5-methyl-3-(6-methyl-3-pyridyl)isoxazol-4-yl]methyl]pyridazin-3-one or enantiomer] registered an inhibitory constant (Ki) of 1.4 nM. Besides, in assay [2], the “Efficacy (GABA) %” value was 228% and the “Fold increase h-GABA-A α5β3γ2 oocyte” value was 3.28.

Take `Cc1ccc(-c2noc(C)c2Cn2ncc(N3CC(OCC(F)(F)F)C3)cc2=O)cn1` [Example 158, 2-[[5-methyl-3-(6-methyl-3-pyridyl)isoxazol-4-yl]methyl]-5-[3-(2,2,2-trifluoroethoxy)azetidin-1-yl]pyridazin-3-one]: the inhibition constant (Ki) in assay [1] stood at 9.6 nM. In addition, in assay [2], the “Efficacy (GABA) %” value is listed as 96% and the “Fold increase h-GABA-A α5β3γ2 oocyte” value is reported as 1.96.

The compound `Cc1ccc(-c2noc(C)c2Cn2ncc(N3CCC(O)CC3)cc2=O)cn1` [Example 5, 5-(4-hydroxy-1-piperidyl)-2-[[5-methyl-3-(6-methyl-3-pyridyl)isoxazol-4-yl]methyl]pyridazin-3-one] gave an inhibition constant (Ki) in assay [1] of 1.6 nM. In assay [2], the “Efficacy (GABA) %” value is given as 155% and the “Fold increase h-GABA-A α5β3γ2 oocyte” value is reported as 2.55.

Regarding `COc1cc(-c2cnn(Cc3c(-c4ccc(C)nc4)noc3C)c(=O)c2)cnc1OC` [Example 179, 5-(5,6-dimethoxypyridin-3-yl)-2-((5-methyl-3-(6-methylpyridin-3-yl)isoxazol-4-yl)methyl)pyridazin-3(2H)-one], the Ki in assay [1] was found to be 29.7 nM. Moreover, in assay [2], the “Efficacy (GABA) %” value came to 133% and the “Fold increase h-GABA-A α5β3γ2 oocyte” value was determined as 2.33.

The compound `Cc1ccc(-c2noc(C)c2Cn2ncc(N3CCC4(CC3)CC(F)CCO4)cc2=O)nn1` (single isomer, unassigned) [Example 327] yielded an inhibition constant Ki in assay [1] of 3.6 nM. Moreover, in assay [2], the “Efficacy (GABA) %” value amounted to 122% and the “Fold increase h-GABA-A α5β3γ2 oocyte” value worked out at 2.22.

With `Cc1ccc(-c2noc(C)c2Cn2ncc(-c3ccc(OC(C)C)nc3)cc2=O)cn1` [Example 190, 5-(6-isopropoxy-3-pyridyl)-2-((5-methyl-3-(6-methyl-3-pyridyl)isoxazol-4-yl)methyl)pyridazin-3-one], the affinity in assay [1] corresponds to a Ki of 25.2 nM. In assay [2], the “Efficacy (GABA) %” value is listed as 146% and the “Fold increase h-GABA-A α5β3γ2 oocyte” value was 2.46.

Consider `CCOC1CN(c2cnn(Cc3c(-c4ccc(C)nn4)noc3C)c(=O)c2)C1` [Example 170, 5-(3-ethoxyazetidin-1-yl)-2-[[5-methyl-3-(6-methylpyridazin-3-yl)isoxazol-4-yl]methyl]pyridazin-3-one], for which, in assay [1], the affinity, expressed as Ki, was 2.2 nM. In assay [2], the “Efficacy (GABA) %” value came to 111% and the “Fold increase h-GABA-A α5β3γ2 oocyte” value is listed as 2.11.

In the case of `Cc1ccc(-c2noc(C)c2Cn2ncc(N3CC4(CCC(F)CO4)C3)cc2=O)nn1` (single isomer, unassigned) [Example 288], the affinity in assay [1] corresponds to a Ki of 3.2 nM. In assay [2], the “Efficacy (GABA) %” value was 63% and the “Fold increase h-GABA-A α5β3γ2 oocyte” value stood at 1.63.

In the case of `CC1(C(=O)N2CCN(c3cnn(Cc4c(-c5ccc(Cl)cn5)noc4C4CC4)c(=O)c3)CC2)CC1` [Example 26, 2-((3-(5-Chloropyridin-2-yl)-5-cyclopropylisoxazol-4-yl)methyl)-5-(4-(1-methylcyclopropanecarbonyl)piperazin-1-yl)pyridazin-3(2H)-one], the affinity in assay [1], expressed as Ki, was 28.4 nM. Besides, in assay [2], the “Efficacy (GABA) %” value is recorded as 247% and the “Fold increase h-GABA-A α5β3γ2 oocyte” value stood at 3.47.

As to `COC1CN(c2cnn(Cc3c(-c4ccc(Cl)nc4)noc3C)c(=O)c2)C1` [Example 212, 2-((3-(6-chloropyridin-3-yl)-5-methylisoxazol-4-yl)methyl)-5-(3-methoxyazetidin-1-yl)pyridazin-3(2H)-one], affinity in assay [1] was put at a Ki of 41.6 nM. Further, in assay [2], the “Efficacy (GABA) %” value came out at 118% and the “Fold increase h-GABA-A α5β3γ2 oocyte” value was found to be 2.18.

`Cc1ccc(-c2noc(C)c2Cn2ncc(-c3cnn(CC(C)C)c3)cc2=O)cn1` [Example 172, 5-(1-isobutylpyrazol-4-yl)-2-[[5-methyl-3-(6-methyl-3-pyridyl)isoxazol-4-yl]methyl]pyridazin-3-one] yielded a Ki in assay [1] of 34 nM. In addition, in assay [2], the “Efficacy (GABA) %” value stood at 113% and the “Fold increase h-GABA-A α5β3γ2 oocyte” value is reported as 2.13.

Compound `Cc1onc(-c2ccc(Cl)nc2)c1Cn1ncc(N2CCC3(CCO3)CC2)cc1=O` [Example 270, 2-((3-(6-chloropyridin-3-yl)-5-methylisoxazol-4-yl)methyl)-5-(1-oxa-7-azaspiro[3.5]nonan-7-yl)pyridazin-3(2H)-one] yielded an inhibition constant Ki in assay [1] of 27.8 nM. In addition, in assay [2], the “Efficacy (GABA) %” value stood at 144% and the “Fold increase h-GABA-A α5β3γ2 oocyte” value was determined as 2.44.

`Cc1ccc(-c2noc(C)c2Cn2ncc(-c3ccnc(N4CCNCC4)c3)cc2=O)cn1` [Example 163, 2-((5-methyl-3-(6-methylpyridin-3-yl)isoxazol-4-yl)methyl)-5-(2-(piperazin-1-yl)pyridin-4-yl)pyridazin-3(2H)-one] came in with a Ki in assay [1] of 11.4 nM. Further, in assay [2], the “Efficacy (GABA) %” value came to 165% and the “Fold increase h-GABA-A α5β3γ2 oocyte” value is given as 2.65.

In the case of `Cc1ccc(-c2noc(C)c2Cn2ncc(-c3ccc(OC(F)(F)F)cc3)cc2=O)cn1` [Example 114, 2-((5-methyl-3-(6-methyl-3-pyridyl)isoxazol-4-yl)methyl)-5-(4-(trifluoromethoxy)phenyl)pyridazin-3-one], in assay [1], the inhibition constant (Ki) was found to be 24 nM. Further, in assay [2], the “Efficacy (GABA) %” value was found to be 81% and the “Fold increase h-GABA-A α5β3γ2 oocyte” value turned out to be 1.81.

Turning to `Cc1ccc(-c2noc(CF)c2Cn2ncc(N3CC4(CCCCO4)C3)cc2=O)nn1` [Example 328, 2-((5-(fluoromethyl)-3-(6-methylpyridazin-3-yl)isoxazol-4-yl)methyl)-5-(5-oxa-2-azaspiro[3.5]nonan-2-yl)pyridazin-3(2H)-one], in assay [1], the affinity corresponds to a Ki of 12.6 nM. In assay [2], the “Efficacy (GABA) %” value stood at 70% and the “Fold increase h-GABA-A α5β3γ2 oocyte” value stood at 1.7.

For `COc1ccc(-c2cnn(Cc3c(-c4ccc(C)nc4)noc3C)c(=O)c2)nc1` [Example 84, 5-(5-methoxypyridin-2-yl)-2-((5-methyl-3-(6-methylpyridin-3-yl)isoxazol-4-yl)methyl)pyridazin-3(2H)-one], the inhibition constant Ki in assay [1] amounted to 85 nM. Moreover, in assay [2], the “Efficacy (GABA) %” value was 89% and the “Fold increase h-GABA-A α5β3γ2 oocyte” value amounted to 1.89.

As to `Cc1ccc(-c2noc(C)c2Cn2ncc(N3CC(OC(C)C)C3)cc2=O)cn1` [Example 112, 5-(3-isopropoxyazetidin-1-yl)-2-[[5-methyl-3-(6-methyl-3-pyridyl)isoxazol-4-yl]methyl]pyridazin-3-one], the inhibition constant Ki in assay [1] is 38 nM. Also, in assay [2], the “Efficacy (GABA) %” value came out at 101% and the “Fold increase h-GABA-A α5β3γ2 oocyte” value worked out at 2.01.

Compound `Cc1ccc(-c2noc(C)c2Cn2ncc(N3CC(OC4CC4)C3)cc2=O)cn1` [Example 136, 5-[3-(cyclopropoxy)azetidin-1-yl]-2-[[5-methyl-3-(6-methyl-3-pyridyl)isoxazol-4-yl]methyl]pyridazin-3-one] yielded a Ki in assay [1] of 5.2 nM. For the same compound, in assay [2], the “Efficacy (GABA) %” value turned out to be 96% and the “Fold increase h-GABA-A α5β3γ2 oocyte” value stood at 1.96.
